Source: patent publication US9951035B2, “Selective matrix metalloproteinase inhibitors” (University of Notre Dame du Lac, priority 2014, dated 2018)
≈ marks a conversion by molar mass, not a printed value. Where “and” joins values, the source holds several entries; their conditions need not be identical. Identical values can stand only once. Entries after “also recorded” stand apart in the source; their conditions may differ.

Assays:
diabetic (db/db) mice = assay: Mouse diabetic wound model; type: in vivo; conditions: for wound healing versus vehicle: 0.25 mg/wound/day; for wound healing versus vehicle / wound closure: db/db mice; for wound closure: 0.25 mg/wound/day topical
From the text: The excisional mouse diabetic model validated by Sullivan et al. was used (Sullivan et al., Plast. Reconstr. Surg. (2004) 113, 953-960). The procedure for inflicting the wounds (single 8 mm wound on the dorsal region) was the same as described previously (Gooyit et al., ACS Chem. Biol. (2014) 9, 505-510). Wounds were photographed and covered with a sterile 3M Tegaderm™ transparent dressing (Butler Schein Animal Health, Inc.).
Female diabetic db/db (BKS.Cg-Dock7m+/+Leprdb/J, 8-weeks old, 38±3 g, n=24) were used for this study. Wounds were inflicted as described. Treatment with the MMP-2 inhibitor (50 μL of 5.0 mg/mL in 80% propylene glycol/20% DMSO, equivalent to 0.25 mg per wound) or vehicle (50 μL of 80% propylene glycol/20% DMSO) was started one day after wound infliction and continued once a day for 14 days. Digital photographs of wounds were taken on days 0, 7, 10, and 14 while the animals were under isoflurane anesthesia. On day 14, all mice were sacrificed. The wounds were excised, embedded in optimal cutting temperature (OCT) compound, and cryosectioned for histological evaluation.
Female diabetic db/db (BKS.Cg-Dock7m+/+Leprdb/J, 8-weeks old, 38±3 g, n=24) were used for this study. Wounds were inflicted and the following day the wounds were treated topically with MMP-8 (50 μL of 20 μg/mL MMP-8 in reaction buffer) or vehicle (50 μL reaction buffer) once a day for 14 days. The reaction buffer consisted of 50 mM Tris (pH 7.5), 10 mM CaCl2, 150 mM NaCl, and 0.05% (w/v) Brij-35. Digital photographs of the wounds were taken on days 0, 7, 10, and 14 while animals were under isoflurane anesthesia. On days 7 and 14, 12 mice (n=6 per group) were sacrificed. The wounds were excised, embedded in OCT compound, and cryosectioned for histological evaluation.
Photographs were taken using the procedure described by Gooyit et al. (ACS Chem Biol. (2014) 9, 505-510) at a fixed distance above the wounds and calibrated using a ruler included in the photographic frame. Image J 1.48c software was used to calculate wound areas. The percentage of wound closure was calculated from the wound area on the specified day relative to that on day 0.
Fresh wound tissue was harvested and embedded in OCT compound. Subsequently, the tissue was cryosectioned for H&E staining (12-μm thickness) and for apoptosis assays and in-situ zymography (8-μm thickness). Re-epithelialization was assessed on a Nikon Eclipse 90i Fluorescent Microscope (Nikon Instruments Inc.) as described earlier (Tkalcevic et al., Toxicol. Pathol. (2009) 37, 183-192). Apoptosis was evaluated using Derma TACS™ Apoptosis detection kits (Trevigen, Inc.) according to the manufacturer's instructions. The protocol of in-situ zymography was adapted from known methods. Gelatinolytic activity was detected in unfixed cryostat sections using DQ-gelatin as a substrate. DQ-gelatin was prepared at a concentration of 20 μg/mL in Tris-buffered saline (TBS) buffer (50 mM TBS pH 7.6, 1 mM CaCl2). A general MMP inhibitor in 0.5 mM EDTA was prepared as a negative control. Cryostat sections were air-dried for 10 min and incubated in the substrate mixture in the presence and absence of EDTA for 1 hr at room temperature. After the incubation period, the slides were washed in PBS (three times, 5 min each), fixed with 4% paraformaldehyde in PBS for 10 min in the dark, washed again with PBS (three times, 5 min each), incubated in the dark for 5 min with 300 nM DAPI solution, and mounted with anti-quenching mounting medium. Fluorescence of FITC was detected with excitation at 460-500 nm and emission at 512-542 nm. DAPI was detected with excitation at 340-380 nm and emission at 425-∞ nm.
Data are expressed as mean±SD. Wound healing between the groups in the studies were analyzed for statistical significance using a paired Student t-test, where p<0.05 was considered statistically significant.

MMP-2 [1] = biological target: T1, MMP-2 (Homo sapiens (Human), UniProt P08253); conditions: literature / previously reported; cited from earlier work
MMP-9 [2] = biological target: T2, MMP-9 (Homo sapiens (Human), UniProt P14780); conditions: cited from earlier work
MMP-2 [3] = biological target: T1, MMP-2; assay: Enzyme inhibition studies, MMP-2; type: biochemical; conditions: slow-binding; Ki calculated from koff/kon; read-out: Ki
MMP-9 [4] = biological target: T2, MMP-9; assay: Enzyme inhibition studies, MMP-9 catalytic domain; type: biochemical; conditions: at 50 μM
MMP-14 [5] = biological target: T3, MMP-14 (Homo sapiens (Human), UniProt P50281); assay: Enzyme inhibition studies, MMP-14 catalytic domain; type: biochemical; conditions: at 50 μM
MMP-1 = MMP-1 (Homo sapiens (Human), UniProt P03956); assay: Enzyme inhibition studies, MMP-1 catalytic domain; type: biochemical
MMP-3 = MMP-3 (Homo sapiens (Human), UniProt P08254); assay: Enzyme inhibition studies, MMP-3 catalytic domain; type: biochemical; conditions: at 100 μM
MMP-7 = MMP-7 (Homo sapiens (Human), UniProt P09237); assay: Enzyme inhibition studies, MMP-7; type: biochemical
MMP-8 = MMP-8 (Homo sapiens (Human), UniProt P22894); assay: Enzyme inhibition studies, MMP-8 catalytic domain; type: biochemical; conditions: Ki, catalytic domain; linear noncompetitive or linear competitive mechanism as footnoted
ADAM9 = ADAM9 (Homo sapiens (Human), UniProt Q13443); assay: Enzyme inhibition studies, ADAM9; type: biochemical; conditions: at 100 μM
ADAM10 = ADAM10 (Homo sapiens (Human), UniProt O14672); assay: Enzyme inhibition studies, ADAM10; type: biochemical; conditions: at 100 μM
[6] = Stability in buffers of the kinetic assays; type: physicochemical
From the text: Human recombinant active MMP-2 and MMP-7, and the catalytic domains of MMP-3 and MMP-14/MT1-MMP were purchased from EMD Chemicals, Inc. (San Diego, Calif., USA); human recombinant catalytic domains of MMP-1, MMP-8, and MMP-9 were purchased from Enzo Life Sciences, Inc. (Farmingdale, N.Y., USA); human recombinant active ADAM9 and ADAM10 were purchased from R&D Systems (Minneapolis, Minn., USA). Fluorogenic substrates MOCAc-Pro-Leu-Gly-Leu-A2pr(Dnp)-Ala-Arg-NH2 (for MMP-2, MMP-7, MMP-9 and MMP-14) and MOCAc-Arg-Pro-Lys-Pro-Val-Glu-Nva-Trp-Arg-Lys(Dnp)-NH2 (for MMP-3) were purchased from Peptides International (Louisville, Ky., USA); Mca-KPLGL-Dpa-AR-NH2 (for MMP-1, MMP-8 and ADAM10) and Mca-PLAQAV-Dpa-RSSSR-NH2 (for ADAM9) were purchased from R&D Systems (Minneapolis, Minn., USA). […] Inhibitor stock solutions (10 mM) were prepared fresh in DMSO before enzyme inhibition assays. We followed the same methodology for enzyme inhibition studies as reported by Page-McCaw et al. (Nat. Rev. Mol. Cell Biol. 2007, 8, 221-233). Enzyme inhibition studies were carried out using a Cary Eclipse fluorescence spectrophotometer (Varian, Walnut Creek, Calif., USA). Compounds 4, 5, 6 and 7 were stable in the buffers that were used in the kinetic assays.

[7] = mouse, in vivo, iv, 5 mg/kg
Method: (§1) Mice (male CD-1, 6-7 weeks old, ˜30 g body weight, specific pathogen free) were purchased from Charles River Laboratories, Inc. (Wilmington, Mass., USA).
(§2) Samples were analyzed by ultraperformance liquid chromatography (UPLC)/(+)electrospray ionization (ESI)-multiple-reaction monitoring (MRM) with a reversed phase C18 column (Acclaim® RSLC 120 C18, 2.2 μm, 120 Å, 2.1×100 mm, Dionex, Sunnyvale, Calif., USA).
(§3) Quantification of the compounds in plasma and brain was obtained using peak-area ratios of the compounds to the internal standard, and the linear-regression parameters obtained from the calibration curves.

in vivo = conditions: male, CD-1, mouse, iv, 5 mg/kg
Method: as §1, §2, §3

physchem = conditions: water, thermodynamic from solid
[8] = Pharmacokinetics and brain distribution after single iv dose
Method: as §1, §2, §3

MMP-14 [9] = biological target: T3, MMP-14; conditions: literature; cited from earlier work
[10] = 2 min after 5 mg/kg single iv, mice
[11] = male, CD-1, mouse, in vivo, 5 mg/kg
[12] = plasma, 5 mg/kg single iv, mice

T2 sequence (P14780 107-444): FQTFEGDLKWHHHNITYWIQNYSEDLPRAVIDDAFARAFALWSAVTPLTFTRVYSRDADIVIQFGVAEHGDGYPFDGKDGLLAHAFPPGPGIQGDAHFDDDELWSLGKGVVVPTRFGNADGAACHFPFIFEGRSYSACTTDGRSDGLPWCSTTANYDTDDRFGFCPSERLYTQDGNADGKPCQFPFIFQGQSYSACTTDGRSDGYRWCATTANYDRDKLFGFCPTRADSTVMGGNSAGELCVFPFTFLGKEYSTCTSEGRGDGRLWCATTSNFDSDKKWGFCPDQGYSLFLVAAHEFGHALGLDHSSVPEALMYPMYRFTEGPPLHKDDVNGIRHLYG
T1 sequence (P08253 110-660): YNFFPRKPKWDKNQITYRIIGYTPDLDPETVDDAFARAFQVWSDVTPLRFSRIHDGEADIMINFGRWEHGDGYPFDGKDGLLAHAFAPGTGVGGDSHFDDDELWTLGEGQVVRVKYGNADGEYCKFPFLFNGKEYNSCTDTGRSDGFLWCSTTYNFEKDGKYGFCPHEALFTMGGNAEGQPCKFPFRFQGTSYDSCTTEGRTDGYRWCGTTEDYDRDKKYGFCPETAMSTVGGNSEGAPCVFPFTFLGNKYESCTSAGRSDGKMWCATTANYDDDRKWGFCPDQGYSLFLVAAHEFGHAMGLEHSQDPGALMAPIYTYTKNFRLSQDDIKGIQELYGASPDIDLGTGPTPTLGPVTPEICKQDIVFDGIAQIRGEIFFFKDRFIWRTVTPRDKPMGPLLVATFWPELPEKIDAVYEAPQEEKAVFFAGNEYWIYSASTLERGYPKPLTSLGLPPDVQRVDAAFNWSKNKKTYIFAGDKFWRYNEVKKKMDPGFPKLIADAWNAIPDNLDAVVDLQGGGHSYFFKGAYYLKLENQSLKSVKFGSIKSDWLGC
Chain of MMP-8 (P22894 100-262): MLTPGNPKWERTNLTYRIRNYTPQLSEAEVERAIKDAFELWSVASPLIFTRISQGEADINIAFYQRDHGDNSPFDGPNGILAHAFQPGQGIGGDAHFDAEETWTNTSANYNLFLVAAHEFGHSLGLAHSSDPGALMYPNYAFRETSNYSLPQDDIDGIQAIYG
Chain of MMP-7 (P09237 95-267): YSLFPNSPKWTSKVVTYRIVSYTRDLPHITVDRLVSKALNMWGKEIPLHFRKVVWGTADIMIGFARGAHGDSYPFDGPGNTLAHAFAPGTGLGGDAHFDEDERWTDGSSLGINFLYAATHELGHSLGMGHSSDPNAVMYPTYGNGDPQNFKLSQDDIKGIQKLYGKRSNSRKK
Chain of ADAM10 (O14672 214-672): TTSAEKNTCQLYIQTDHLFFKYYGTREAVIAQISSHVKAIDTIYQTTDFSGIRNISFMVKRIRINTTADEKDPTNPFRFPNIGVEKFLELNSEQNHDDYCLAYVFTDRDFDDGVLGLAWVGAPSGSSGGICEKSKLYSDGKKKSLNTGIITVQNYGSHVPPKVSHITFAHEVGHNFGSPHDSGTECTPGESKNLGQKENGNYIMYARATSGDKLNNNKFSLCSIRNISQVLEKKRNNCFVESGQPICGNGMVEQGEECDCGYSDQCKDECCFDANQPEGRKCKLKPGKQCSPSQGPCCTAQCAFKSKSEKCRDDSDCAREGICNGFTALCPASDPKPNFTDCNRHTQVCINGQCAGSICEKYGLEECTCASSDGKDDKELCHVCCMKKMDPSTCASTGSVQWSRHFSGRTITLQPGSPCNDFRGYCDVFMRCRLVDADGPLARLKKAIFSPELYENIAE
Chain of ADAM9 (Q13443 206-697): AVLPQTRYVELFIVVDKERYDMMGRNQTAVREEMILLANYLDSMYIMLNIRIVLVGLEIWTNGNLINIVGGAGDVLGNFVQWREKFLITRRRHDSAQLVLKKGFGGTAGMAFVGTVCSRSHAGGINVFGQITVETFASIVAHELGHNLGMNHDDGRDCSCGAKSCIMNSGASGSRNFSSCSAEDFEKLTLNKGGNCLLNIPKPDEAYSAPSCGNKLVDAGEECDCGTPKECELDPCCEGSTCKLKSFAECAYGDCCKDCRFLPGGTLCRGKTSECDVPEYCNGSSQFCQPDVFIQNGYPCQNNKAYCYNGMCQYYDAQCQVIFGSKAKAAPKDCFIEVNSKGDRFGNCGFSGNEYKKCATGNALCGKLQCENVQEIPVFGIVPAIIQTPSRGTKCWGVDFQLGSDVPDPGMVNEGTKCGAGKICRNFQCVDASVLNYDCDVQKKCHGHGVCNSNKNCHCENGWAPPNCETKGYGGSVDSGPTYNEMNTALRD
Chain of MMP-3 (P08254 100-272): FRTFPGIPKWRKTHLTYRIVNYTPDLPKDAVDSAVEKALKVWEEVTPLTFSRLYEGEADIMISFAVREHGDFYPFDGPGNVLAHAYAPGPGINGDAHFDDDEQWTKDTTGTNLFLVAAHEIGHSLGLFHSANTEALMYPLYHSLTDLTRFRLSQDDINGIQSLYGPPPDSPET
Chain of MMP-1 (P03956 98-276): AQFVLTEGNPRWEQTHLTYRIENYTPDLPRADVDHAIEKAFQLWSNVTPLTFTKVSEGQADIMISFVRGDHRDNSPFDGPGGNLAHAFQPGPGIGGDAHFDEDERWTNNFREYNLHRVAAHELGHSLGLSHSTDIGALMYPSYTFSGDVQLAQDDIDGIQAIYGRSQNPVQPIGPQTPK

## CCNC(=O)Nc1ccc(Oc2ccc(S(=O)(=O)CC3CS3)cc2)cc1 (centres unmarked) [Compound 1x]
Diabetic (db/db) mice; in words
  wound healing versus vehicle: No significant differences
Diabetic (db/db) mice; in words, listed as MMP-2 inhibitor
  wound healing versus vehicle: No differences were observed between the groups
Diabetic (db/db) mice; H&E staining, day 14, in words
  re-epithelialization: Partial re-epithelialization
Diabetic (db/db) mice; day 7
  wound closure: 23±16%
Diabetic (db/db) mice; day 10
  wound closure: 45±11%
Diabetic (db/db) mice; day 14
  wound closure: 70±15%
MMP-2 [1]
  residence time bound to MMP-2: 24.5 min
MMP-9 [2]; at 50,000 nM, Gooyit et al. 2013
  MMP-9 inhibition: 28%

## CC(=O)NCc1ccc(Oc2ccc(S(=O)(=O)CC3CS3)cc2)cc1 (centres unmarked) [Compound 6, N-(4-(4-((Thiiran-2-ylmethyl)sulfonyl)phenoxy)benzyl)acetamide]
MMP-2 [3]
  Ki: 230 nM and 234 nM
MMP-9 [4]
  inhibition at 50 µM: 23%
MMP-9 [4]; listed as ND-378
  Inhibition: Ki (MMP-9) 23% inhibition at 50 μM
MMP-14 [5]
  inhibition at 50 µM: 23%
MMP-14 [5]; listed as ND-378
  Inhibition: Ki (MMP-14) 23% inhibition at 50 μM
MMP-1
  inhibition at 100 µM: 37%
MMP-1; at 100 μM, listed as ND-378
  Inhibition: Ki (MMP-1) 37% inhibition at 100 μM
MMP-3
  inhibition at 100 µM: 14%
MMP-3; listed as ND-378
  Inhibition: Ki (MMP-3) 14% inhibition at 100 μM
MMP-7
  inhibition at 100 µM: 5%
MMP-7; at 100 μM, listed as ND-378
  Inhibition: Ki (MMP-7) 4.7% inhibition at 100 μM
MMP-8
  Ki: 690 nM and 692 nM
ADAM9
  inhibition at 100 µM: 31%
ADAM9; listed as ND-378
  Inhibition: Ki (ADAM-9) 31% inhibition at 100 μM
ADAM10
  inhibition at 100 µM: 8%
ADAM10; listed as ND-378
  Inhibition: Ki (ADAM-10) 8% inhibition at 100 μM
[6]
  stability in the buffers used in the kinetic assays: stable
[7]
  AUC0-last: 66.5 pmol·min/mg
  AUC0-∞: 67.2 pmol·min/mg
In vivo
  AUC(0-inf): 7.28 µM·h
  AUC(0-t): 7.25 µM·h
  Vd: 0.329 L/kg
  clearance: 30.3 mL/min/kg
physchem
  solubility: 25 µg/mL (≈ 66.2 µM)
[8]; 5 mg/kg single iv, mice
  clearance as % of hepatic blood flow: 35%
  time brain levels above Ki for MMP-2: 30 min
  time plasma levels above Ki for MMP-2: 30 min
[8]; [10]
  Brain concentration: 5.98±1.48 pmol/mg tissue
  Plasma concentration: 35000 ± 7700 nM
[8]; 5 min after 5 mg/kg single iv, mice
  Brain concentration: 4.90 ± 4.81 pmol/mg tissue
[8]; 10 min after 5 mg/kg single iv, mice
  Brain concentration: 0.954 ± 0.473 pmol/mg tissue
[8]; 30 min after 5 mg/kg single iv, mice
  Brain concentration: 0.231 ± 0.122 pmol/mg tissue
[8]; 60 min after 5 mg/kg single iv, mice
  Brain concentration: 0.0544 ± 0.0539 pmol/mg tissue
[8]; 90 min after 5 mg/kg single iv, mice
  Brain concentration: 0.0263 ± 0.0228 pmol/mg tissue
[8]; brain, 5 mg/kg single iv, mice
  t1/2α: 2.89 min
  t1/2β: 19.1 min
[8]; in words, listed as ND-378
  crossing of the blood-brain barrier: cross the blood-brain barrier; also recorded: crosses the BBB
[8]; [11]
  concentration at 2 min: 35000 ± 7690 nM
  concentration at 5 min: 20300 ± 2800 nM
  concentration at 10 min: 14100 ± 5000 nM
  concentration at 30 min: 1640 ± 480 nM
  concentration at 60 min: 97.9 ± 6.5 nM
  concentration at 90 min: 82.7 ± 26.2 nM
  concentration at 120 min: 29.7 ± 16.8 nM
  concentration at 240 min: 19.3 ± 3.7 nM
[8]; male, CD-1, mouse, in vivo, iv, 5 mg/kg
  Kp: 0.154
[8]; [12]
  t1/2α: 6.31 min
  t1/2β: 86.6 min

## TIMP-1: tissue inhibitor of metalloproteinase 1, protein inhibitor of MMPs
MMP-2 [1]
  residence time bound to MMP-2: 7 min and 6.9 min
MMP-9 [2]; literature / previously reported
  residence time bound to MMP-9: 8 min

B1: TIMP-4: tissue inhibitor of metalloproteinase, protein inhibitor of MMPs (protein, UniProt Q99727 30-224, looked up)
Metalloproteinase inhibitor 4: CSCAPAHPQQHICHSALVIRAKISSEKVVPASADPADTEKMLRYEIKQIKMFKGFEKVKDVQYIYTPFDSSLCGVKLEANSQKQYLLTGQVLSDGKVFIHLCNYIEPWEDLSLVQRESLNHHYHLNCGCQITTCYTVPCTISAPNECLWTDWLLERKLYGYQAQHYVCMKHVDGTCSWYRGHLPLRKEFVDIVQP
MMP-14 [9]
  residence time bound to MMP-14: 39 min
